The source made the active and inactive calls. Cut-off read from the data, not from the text of the source: actives have a measured IC50 and inactives only a lower limit.

The assay deals with Envelope glycoprotein gp160 (Human immunodeficiency virus 1, UniProt Q6QLK5). The assay is described as follows: cell-free HIV fusion peptide-binding blockers – biochemical, uHTS, fluorescence dequenching, […] (AID 1986).
Envelope glycoprotein gp160, sequence (Q6QLK5 whole entry, the tested form may be a part): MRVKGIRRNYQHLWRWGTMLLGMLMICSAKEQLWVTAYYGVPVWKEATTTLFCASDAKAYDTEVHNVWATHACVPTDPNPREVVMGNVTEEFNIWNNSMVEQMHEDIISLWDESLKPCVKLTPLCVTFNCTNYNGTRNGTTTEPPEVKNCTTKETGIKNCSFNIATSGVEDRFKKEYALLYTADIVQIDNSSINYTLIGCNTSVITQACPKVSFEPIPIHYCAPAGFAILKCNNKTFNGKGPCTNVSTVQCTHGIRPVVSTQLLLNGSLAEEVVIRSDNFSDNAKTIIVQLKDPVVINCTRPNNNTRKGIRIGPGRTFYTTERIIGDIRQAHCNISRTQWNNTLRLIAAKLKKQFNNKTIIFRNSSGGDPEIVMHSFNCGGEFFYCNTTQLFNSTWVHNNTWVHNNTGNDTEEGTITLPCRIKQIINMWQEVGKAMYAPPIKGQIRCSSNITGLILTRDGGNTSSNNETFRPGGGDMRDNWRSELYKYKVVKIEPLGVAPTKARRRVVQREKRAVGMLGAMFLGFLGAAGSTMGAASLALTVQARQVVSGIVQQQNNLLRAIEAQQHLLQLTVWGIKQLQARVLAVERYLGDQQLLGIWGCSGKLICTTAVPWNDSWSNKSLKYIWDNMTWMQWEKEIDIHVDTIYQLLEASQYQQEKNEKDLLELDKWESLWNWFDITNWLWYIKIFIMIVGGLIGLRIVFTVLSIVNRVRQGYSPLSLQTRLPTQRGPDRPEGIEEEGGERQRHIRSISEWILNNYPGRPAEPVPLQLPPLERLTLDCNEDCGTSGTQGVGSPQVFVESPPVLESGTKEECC

Turning to `COc1cc(/C=C(\C#N)c2nc3ccccc3s2)cc([N+](=O)[O-])c1O`, the half-maximal inhibitory concentration (IC50) (in general, the concentration that inhibits the measured activity by half) was 8.88 µM (active).

For the origin of these results see ChEMBL document CHEMBL1201862, “PubChem BioAssay data set” (2004).
